The text below walks through data of patent US20080076927A1, “Synthetic Methods and Intermediates for Stereoisomeric Compounds Useful for the Treatment of Gastrointestinal and Central Nervous System Disorders” (ARYx Therapeutics, Inc., priority 2005, published 2008).

Read-outs that look alike come from different tables or passages of the source.

The format of series [1] is in vitro ADME, human. On the procedure:
ATI-7505 (2 μM) was incubated with human microsomal protein (1 mg) in the presence or absence of NADPH regenerating system (cofactor).
Thus the major biotransformation pathway for ATI-7505 occurs independently of CYP450 enzymes.
The metabolism of these compounds was studied in pooled human microsomes in the presence and absence of the Cytochrome P-450 cofactor NADPH and both the disappearance of parent and the appearance of the corresponding acid metabolite, i.e., the corresponding compound-II isomer, monitored with time.
In this experiment, the amount of substrate (compounds III, IV, V, and VI) remaining in the reaction after 5, 60, and 90 minutes were evaluated by a tandem HPLC-MS method. This remaining amount was correlated with the appearance of the metabolite compound II.

The next series addresses CYP3A4 (Homo sapiens, UniProt P08684). The conditions noted are these: recombinant enzyme.
The target of a further series is 2D6 (Homo sapiens, UniProt P10635).
The target in a further series is 2C9 (Homo sapiens, UniProt P11712).
The target in series [2] is T1, 5-HT4 Receptor (Cavia porcellus, UniProt O70528). Description: 5-HT4 Receptor Binding, Guinea Pig Striatum, [3H]GR113808. On the set-up: Guinea Pig Striatum; from tissue; host or cells: guinea pig striatum. The conditions noted are these: Guinea Pig Striatum.
The test system of series [3] is isolated, perfused guinea pig hearts.
For series [4] the following is noted: in vivo; cited from earlier work.
In series [5] the target is T2, human IKr (HERG K+ channels) (Homo sapiens, UniProt Q12809).
T2 construct: expressed in transfected cells; host or cells: HEK-293
Description: whole cell patch-clamp of IKr in HEK-293 cells expressing the HERG K+ channels. The settings on record: human, 10000 nM. In kind it is cell-based. On the technique in general: The patch-clamp technique gives a direct electrical read-out from membranes.
Description: The test system was mammalian HEK-293 cells expressing the HERG K+ channels, in which the potassium current was measured by whole cell patch-clamp technique.

The conditions of series [6]: July 1993 to December 1999; cited from earlier work.
For another series, the target named is T3, human 5-HT4 receptor (Homo sapiens, UniProt Q13639).
T3 construct: expressed in transfected cells
Description: adenylyl cyclase stimulation in cells engineered to stably express human 5-HT4 receptor. The settings on record: estimated Emax relative to 5-HT. It is filed as cell-based. An excerpt:
ARYx performed in vitro assays based on adenylyl cyclase stimulation in cells engineered to stably express human 5-HT4 receptor. […] [table]

Series [7] is described as follows: Metabolism in Fresh Human Blood. In kind it is in vitro ADME. The settings on record: blood; for half-life at 100 µM: Half-life (min); for Half-life: 100 µM. On the procedure: Fresh blood was collected into heparinized tubes from 3 human donors and blood was stored on ice until incubation. Separate aliquots of blood from each donor were pipetted into 1.5 mL centrifuge tubes and the tubes were pre-incubated in a shaking water bath at 37° C. for 5 minutes. The reaction was initiated by the addition of 10 μL of the appropriate test compound stock to each tube (final concentration=100 μM). Incubations were quenched after 0, 5, 15, 30 and 60 minutes, by the addition of acetonitrile ([…]), centrifuged at 12,000 rpm for 2 minutes and the supernatant analyzed on an Agilent 1100 HPLC system. Separations were accomplished on a Keystone Intersil ODS2, 250×4.6 mm, […] column. The aqueous mobile phase consisted of 20 mM ammonium acetate buffer (pH 5.7) and the organic phase acetonitrile. A gradient was used: initial condition consisted of 20% acetonitrile for 1 minute. […] The system was then recycled to initial conditions over the course of 1 minute and held there for 4 minutes before the next injection. […] The results were expressed as amount of initial compound remaining and data subjected to kinetic analysis using WinNonLin. The half-lives for the individual compounds are given below in Table 6.

Series [8] has as its system esterases in human plasma.
Series [9] addresses T1, 5-HT4 Receptor. The series is described as follows: 5-HT4 receptor binding of the isomers of compound I, radiolabel displacement method. The conditions noted are these: read-out: binding constant Ki.

T1 sequence (O70528 whole entry, the tested form may be a part): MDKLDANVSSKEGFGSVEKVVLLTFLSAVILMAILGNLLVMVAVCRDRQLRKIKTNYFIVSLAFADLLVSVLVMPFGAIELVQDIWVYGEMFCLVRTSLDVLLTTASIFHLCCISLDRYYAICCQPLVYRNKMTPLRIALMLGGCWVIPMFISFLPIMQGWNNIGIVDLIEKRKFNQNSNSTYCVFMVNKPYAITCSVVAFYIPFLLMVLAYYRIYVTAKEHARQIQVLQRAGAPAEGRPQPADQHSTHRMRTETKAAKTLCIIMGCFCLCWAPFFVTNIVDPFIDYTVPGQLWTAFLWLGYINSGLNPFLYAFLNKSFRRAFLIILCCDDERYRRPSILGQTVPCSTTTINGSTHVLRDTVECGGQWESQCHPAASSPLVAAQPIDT
Sequence of 2D6 (P10635 whole entry): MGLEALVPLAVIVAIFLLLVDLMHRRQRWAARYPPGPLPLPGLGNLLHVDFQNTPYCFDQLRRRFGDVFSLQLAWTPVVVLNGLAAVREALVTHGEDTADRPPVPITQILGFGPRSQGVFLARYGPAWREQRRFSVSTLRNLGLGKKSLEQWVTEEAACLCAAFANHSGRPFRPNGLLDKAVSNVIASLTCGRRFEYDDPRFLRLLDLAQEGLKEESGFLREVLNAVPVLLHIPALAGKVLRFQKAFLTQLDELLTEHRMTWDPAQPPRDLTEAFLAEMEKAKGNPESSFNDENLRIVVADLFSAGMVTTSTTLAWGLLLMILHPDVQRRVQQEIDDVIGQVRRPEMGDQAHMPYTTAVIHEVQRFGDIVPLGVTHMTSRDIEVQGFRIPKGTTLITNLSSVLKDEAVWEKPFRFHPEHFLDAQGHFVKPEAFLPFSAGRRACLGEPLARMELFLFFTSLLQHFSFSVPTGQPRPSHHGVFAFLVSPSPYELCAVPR
Sequence of 2C9 (P11712 whole entry): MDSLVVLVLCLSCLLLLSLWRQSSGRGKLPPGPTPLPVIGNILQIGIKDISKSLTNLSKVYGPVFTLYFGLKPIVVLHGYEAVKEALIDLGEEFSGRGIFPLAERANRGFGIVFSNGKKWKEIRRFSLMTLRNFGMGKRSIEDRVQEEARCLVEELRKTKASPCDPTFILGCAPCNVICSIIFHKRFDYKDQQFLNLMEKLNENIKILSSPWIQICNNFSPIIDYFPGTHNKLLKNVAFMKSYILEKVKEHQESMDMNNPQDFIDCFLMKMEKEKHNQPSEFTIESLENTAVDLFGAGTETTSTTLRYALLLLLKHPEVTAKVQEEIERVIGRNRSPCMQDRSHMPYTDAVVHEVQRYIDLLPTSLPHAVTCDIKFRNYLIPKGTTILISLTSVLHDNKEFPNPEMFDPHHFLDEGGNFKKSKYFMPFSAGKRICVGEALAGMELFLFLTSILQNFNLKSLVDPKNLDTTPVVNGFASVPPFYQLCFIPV
T3 sequence (Q13639 whole entry): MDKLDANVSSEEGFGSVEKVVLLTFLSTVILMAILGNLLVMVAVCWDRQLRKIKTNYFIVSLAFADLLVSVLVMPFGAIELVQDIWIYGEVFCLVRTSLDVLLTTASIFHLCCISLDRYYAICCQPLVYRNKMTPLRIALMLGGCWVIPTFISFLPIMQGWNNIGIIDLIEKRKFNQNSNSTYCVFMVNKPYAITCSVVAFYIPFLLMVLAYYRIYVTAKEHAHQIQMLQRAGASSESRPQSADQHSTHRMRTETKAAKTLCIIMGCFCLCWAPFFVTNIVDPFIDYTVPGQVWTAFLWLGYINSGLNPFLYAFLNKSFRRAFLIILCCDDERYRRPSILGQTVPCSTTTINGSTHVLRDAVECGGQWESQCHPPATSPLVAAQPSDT
T2 sequence (Q12809 whole entry): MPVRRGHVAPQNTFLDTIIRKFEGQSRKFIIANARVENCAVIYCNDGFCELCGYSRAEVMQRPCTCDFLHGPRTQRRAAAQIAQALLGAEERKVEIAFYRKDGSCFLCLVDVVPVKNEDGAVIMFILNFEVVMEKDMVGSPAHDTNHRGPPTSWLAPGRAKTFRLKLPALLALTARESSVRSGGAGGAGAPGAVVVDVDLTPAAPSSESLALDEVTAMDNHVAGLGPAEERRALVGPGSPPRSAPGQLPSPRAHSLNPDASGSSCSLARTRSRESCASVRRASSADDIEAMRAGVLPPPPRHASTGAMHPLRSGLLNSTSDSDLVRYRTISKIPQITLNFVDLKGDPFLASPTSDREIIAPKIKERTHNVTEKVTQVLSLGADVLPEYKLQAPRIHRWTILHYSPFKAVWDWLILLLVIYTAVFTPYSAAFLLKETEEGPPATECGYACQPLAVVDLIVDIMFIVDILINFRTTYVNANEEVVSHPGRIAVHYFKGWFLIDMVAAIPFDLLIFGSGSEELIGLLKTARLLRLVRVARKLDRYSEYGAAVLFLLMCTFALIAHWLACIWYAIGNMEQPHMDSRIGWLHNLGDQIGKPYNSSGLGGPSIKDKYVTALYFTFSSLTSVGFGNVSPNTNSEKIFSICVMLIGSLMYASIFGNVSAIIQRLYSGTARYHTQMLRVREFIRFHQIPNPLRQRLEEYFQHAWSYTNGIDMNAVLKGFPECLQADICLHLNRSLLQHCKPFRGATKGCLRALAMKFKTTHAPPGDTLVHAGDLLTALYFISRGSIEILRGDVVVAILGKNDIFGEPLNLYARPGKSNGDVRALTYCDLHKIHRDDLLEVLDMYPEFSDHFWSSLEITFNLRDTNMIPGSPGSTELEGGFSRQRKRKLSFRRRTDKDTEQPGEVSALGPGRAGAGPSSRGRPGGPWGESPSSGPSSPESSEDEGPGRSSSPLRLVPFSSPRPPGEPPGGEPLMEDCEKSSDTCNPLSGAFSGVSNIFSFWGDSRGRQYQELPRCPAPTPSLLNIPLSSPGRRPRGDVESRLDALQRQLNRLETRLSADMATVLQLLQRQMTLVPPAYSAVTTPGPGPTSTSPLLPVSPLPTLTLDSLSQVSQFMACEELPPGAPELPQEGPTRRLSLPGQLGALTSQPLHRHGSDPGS
Sequence of CYP3A4 (P08684 whole entry): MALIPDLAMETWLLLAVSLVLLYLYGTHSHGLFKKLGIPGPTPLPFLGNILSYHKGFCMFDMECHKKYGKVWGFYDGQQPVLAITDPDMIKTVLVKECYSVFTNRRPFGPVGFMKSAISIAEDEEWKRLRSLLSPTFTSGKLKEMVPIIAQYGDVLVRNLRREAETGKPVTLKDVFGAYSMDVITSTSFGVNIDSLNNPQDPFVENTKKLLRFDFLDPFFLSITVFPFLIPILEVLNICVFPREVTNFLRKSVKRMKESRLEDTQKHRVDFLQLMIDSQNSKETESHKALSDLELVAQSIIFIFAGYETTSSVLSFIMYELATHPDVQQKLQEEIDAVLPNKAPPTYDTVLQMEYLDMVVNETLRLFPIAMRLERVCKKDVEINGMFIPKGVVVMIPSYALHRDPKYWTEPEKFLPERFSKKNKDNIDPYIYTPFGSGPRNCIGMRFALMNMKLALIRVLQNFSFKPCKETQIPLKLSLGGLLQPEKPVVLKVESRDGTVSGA

In the case of `COc1cc(N)c(Cl)cc1C(=O)N[C@@H]1CCN(CCCCCC(=O)O)C[C@@H]1OC` [ATI-7500, 6-((3S,4R)-4-(4-amino-5-chloro-2-methoxybenzamido)-3-methoxypiperidin-1-yl)hexanoic acid], in series [1], the “biotransformation in pooled human microsomes” value is on record as “does not appear to be subject to further metabolism”. Also, the “inhibitory activity against CYP3A4” value at CYP3A4 is “Neither ATI-7505 nor its primary metabolite, ATI-7500 displayed significant inhibitory activity”. Also, on 2D6 (human), the “inhibitory activity against 2D6” value is listed as “Neither ATI-7505 nor its primary metabolite, ATI-7500 displayed significant inhibitory activity”. Further, on 2C9, the “inhibitory activity against 2C9” value is “Neither ATI-7505 nor its primary metabolite, ATI-7500 displayed significant inhibitory activity”. Moreover, the IC50 on 5-HT4 Receptor [2] ([3H]GR113808 (0.70 nM), read-out: IC50) was more than 3 µM. On 5-HT4 Receptor [2] ([3H]GR113808 (0.70 nM), read-out: Ki), the Ki is more than 0.5 µM. Besides, the “modulation of cardiac electrophysiologic parameters” value in series [3] is “entirely lacked electrophysiological activity”.

On to `COc1cc(N)c(Cl)cc1C(=O)NC1CCN(CCCOc2ccc(F)cc2)CC1OC` (stereo not drawn) [Cisapride, reference compound], for which the “part of a dose metabolized by oxidative N-dealkylation or aromatic hydroxylation” value in series [4] was “More than 90%”. Further, the “% IKr control (10,000 nM)” value in series [5] is 0%. In addition, in the series on fasted, conscious dogs (IV and PO), the “antral and small bowel contractility, colonic motor activity” value is “dose-dependent stimulation of antral and small bowel contractility with relatively little effect on colonic motor activity”; the “prokinetic effects in the dog gut” value is “caused prokinetic effects in the dog gut”. The “migrating motor complex (MMC) characteristics” value in the series on fasted, conscious dogs (antrum, proximal, mid and distal small intestine) was “minimal effect”. Further, the “inhibitory activity against 2D6” value at 2D6 is recorded as “significant inhibitory activity”. The “nH, Hill coefficient” value on 5-HT4 Receptor [2] was 0.8. Also, in [6], the deaths reported is on record as 80 and the “serious cardiac arrhythmias reportedly associated” value was “at least 341”. Also, the “No Observed Effect Level (NOEL), Combined Parameters” value in [3] (guinea pig) is 10 nM. For the same molecule, on human 5-HT4 receptor, the “Efficacy % of 5HT (serotonin)” value was 77%.

Molecule `COc1cc(N)c(Cl)cc1C(=O)N[C@H]1CCN(CCCCCC(=O)O[C@H]2CN3CCC2CC3)C[C@H]1OC` [Compound III, (3R,4S,3′R)-6-[4-(4-Amino-5-chloro-2-methoxy-benzoylamino)-3-methoxy-piperidin-1-yl]-hexanoic acid 1-aza-bicyclo[2.2.2]oct-3-yl ester] gave a half-life at 100 µM in series [7] of 0.2 h. In addition, the “hydrolysis by esterase in human microsomes” value (shortened to “hydrolysis by esterase”) in series [1] is “rapidly hydrolyzed by esterase”. For the same molecule, the “dependence of metabolism on NADPH / CYP450” value in series [1] (human, microsomes) is given as “not dependent on CYP450”. Moreover, in series [8], the “rate of metabolism by esterases in human plasma” value (“rate of metabolism by esterases” below) is listed as “rapidly metabolized by esterases in human plasma”. Further, the Ki on 5-HT4 Receptor [9] was determined as 0.028 µM.

With `COc1cc(N)c(Cl)cc1C(=O)N[C@@H]1CCN(CCCCCC(=O)O[C@@H]2CN3CCC2CC3)C[C@@H]1OC` [Compound VI, (3S,4R,3′S)-6-[4-(4-Amino-5-chloro-2-methoxy-benzoylamino)-3-methoxy-piperidin-1-yl]-hexanoic acid 1-aza-bicyclo[2.2.2]oct-3-yl ester], in series [7], the “Half-life” value is more than 1 h and the half-life at 100 µM is more than 1 h. Further, in series [1], the “hydrolysis by esterase” value is “quite stable with time”. Besides, the “rate of metabolism by esterases” value in series [8] is on record as “undergo a much slower metabolism”. For the same molecule, the inhibition constant Ki on 5-HT4 Receptor [9] is 0.0034 µM.

Regarding `COc1cc(N)c(Cl)cc1C(=O)N[C@H]1CCN(CCCCCC(=O)O[C@@H]2CN3CCC2CC3)C[C@H]1OC` [Compound V], in series [7], the “Half-life” value is more than 1 h and the half-life at 100 µM was more than 1 h. The “hydrolysis by esterase” value in series [1] is on record as “quite stable with time”. Moreover, the “rate of metabolism by esterases” value in [8] is “undergo a much slower metabolism”. Moreover, the Ki at 5-HT4 Receptor [9] is 0.072 µM.

What is called IC50 is the concentration at which inhibition is half-maximal. A word on the Ki: it is a dissociation constant, usually derived from enzyme kinetics or from competition with a known ligand. Broadly, the half-life is how long it takes for the measured level to halve.
